This experiment deals with Mycobacterium tuberculosis. As to the kind of experiment: Antimycobacterial activity against multidrug-resistant Mycobacterium tuberculosis assessed as growth inhibition at 0.3125 to 5 ug/mL by resazurin assay. It is filed as functional.

In ChEMBL document CHEMBL2417425, “Design and synthesis of positional isomers of 5 and 6-bromo-1-[(phenyl)sulfonyl]-2-[(4-nitrophenoxy)methyl]-1H-benzimidazoles as possible antimicrobial and antitubercular agents” (2013) one finds MIC data, which are given here for 21 molecules.

Each structure is given as a SMILES string. ≈ marks a conversion by molar mass, not a printed value.

For the molecule `Cc1c(F)cccc1S(=O)(=O)n1c(COc2ccc([N+](=O)[O-])cc2)nc2cc(Br)ccc21`, the MIC was over 50 µg/mL. `NNC(=O)c1ccncc1` [ISONIAZID]: the MIC came out at 12.5 µg/mL (≈ 91.1 µM). Turning to `O=[N+]([O-])c1ccc(OCc2nc3ccc(Br)cc3n2S(=O)(=O)c2cc(F)ccc2F)cc1`, the minimum inhibitory concentration (MIC) is over 50 µg/mL. `COc1ccc(S(=O)(=O)n2c(COc3ccc([N+](=O)[O-])cc3)nc3cc(Br)ccc32)c(OC)c1`: the MIC is over 50 µg/mL. As to `Nc1ccc(OCc2nc3cc(Br)ccc3[nH]2)cc1`, the MIC worked out at 25 µg/mL (≈ 78.6 µM). Consider `O=[N+]([O-])c1ccc(OCc2nc3cc(Br)ccc3n2S(=O)(=O)c2ccccc2Cl)cc1`, for which the MIC was determined as 6.25 µg/mL (≈ 12 µM). Turning to `Cc1c(F)cccc1S(=O)(=O)n1c(COc2ccc([N+](=O)[O-])cc2)nc2ccc(Br)cc21`, the MIC is over 50 µg/mL. The same measure for `O=[N+]([O-])c1ccc(OCc2nc3ccc(Br)cc3n2S(=O)(=O)c2cc(Cl)ccc2Cl)cc1`: over 50 µg/mL. The same measure for `COc1ccc(OC)c(S(=O)(=O)n2c(COc3ccc([N+](=O)[O-])cc3)nc3ccc(Br)cc32)c1`: 25 µg/mL (≈ 45.6 µM); for `CO[C@H]1/C=C/O[C@@]2(C)Oc3c(C)c(O)c4c(O)c(c(/C=N/N5CCN(C)CC5)c(O)c4c3C2=O)NC(=O)/C(C)=C\C=C\[C@H](C)[C@H](O)[C@@H](C)[C@@H](O)[C@@H](C)[C@H](OC(C)=O)[C@@H]1C` [RIFAMPIN]: 25 µg/mL (≈ 30.4 µM). In the case of `N#Cc1cccc(S(=O)(=O)n2c(COc3ccc([N+](=O)[O-])cc3)nc3ccc(Br)cc32)c1`, the MIC was over 50 µg/mL. Take `O=[N+]([O-])c1ccc(OCc2nc3ccc(Br)cc3n2S(=O)(=O)c2ccccc2[N+](=O)[O-])cc1`: the MIC is over 50 µg/mL.

Regarding `Cc1cccc(S(=O)(=O)n2c(COc3ccc([N+](=O)[O-])cc3)nc3ccc(Br)cc32)c1`, the minimal inhibitory concentration (MIC) was over 50 µg/mL. Turning to `Cc1cccc(S(=O)(=O)n2c(COc3ccc([N+](=O)[O-])cc3)nc3cc(Br)ccc32)c1`, the MIC was over 50 µg/mL. The same measure for `O=[N+]([O-])c1ccc(OCc2nc3cc(Br)ccc3n2S(=O)(=O)c2ccc(Cl)cc2Cl)cc1`: over 50 µg/mL; for `O=[N+]([O-])c1ccc(OCc2nc3cc(Br)ccc3n2S(=O)(=O)c2ccccc2[N+](=O)[O-])cc1`: 6.25 µg/mL (≈ 11.7 µM).

As to `COc1ccc(S(=O)(=O)n2c(COc3ccc([N+](=O)[O-])cc3)nc3ccc(Br)cc32)c(OC)c1`, the MIC was 2.5 µg/mL (≈ 4.56 µM).

In the case of `O=[N+]([O-])c1ccc(OCc2nc3cc(Br)ccc3n2S(=O)(=O)c2cc(F)ccc2F)cc1`, the MIC was found to be 6.25 µg/mL (≈ 11.9 µM). On to `COc1ccc(OC)c(S(=O)(=O)n2c(COc3ccc([N+](=O)[O-])cc3)nc3cc(Br)ccc32)c1`, for which the minimum inhibitory concentration (MIC) is over 50 µg/mL. Under `N#Cc1cccc(S(=O)(=O)n2c(COc3ccc([N+](=O)[O-])cc3)nc3cc(Br)ccc32)c1` stands over 50 µg/mL; under `O=[N+]([O-])c1ccc(OCc2nc3cc(Br)ccc3n2S(=O)(=O)c2cc(Cl)ccc2Cl)cc1`, over 50 µg/mL.

By MIC is commonly meant the lowest concentration that inhibits growth of the organism.
